Measured values published in patent US10245261B2, “Substituted indol-5-ol derivatives and their therapeutic applications” (NantBioScience, Inc., priority 2013, dated 2019).

Columns and labels:
Test in all cases: KinaseProfiler kinase assay
Assay type in all cases: biochemical
KDR(h) = KDR(h) (Homo sapiens, UniProt P35968)
Abl(h) = Abl(h) (Homo sapiens, UniProt P00519)
cSRC(h) = cSRC(h) (Homo sapiens, UniProt P12931)
Experimental: (§1) This example tests the inhibitory properties of representative compounds of the invention in c-Src kinase, Aurora-A kinase, Flt3 kinase, Ret kinase and TrkA Kinase assays (see, Daniele Fancelli et al, J. Med. Chem., 2006, 49 (24), pp 7247-7251). The KinaseProfiler™ Service Assay Protocols (Millipore) was used to test the kinase inhibiting activity of novel compounds from this invention. To do this, the buffer composition was as: 20 mM MOPS, 1 mM EDTA, 0.01% Brij-35, 5% Glycerol, 0.1% β-mercaptoethanol, 1 mg/mL BSA. Test compounds were initially dissolved in DMSO at the desired concentration, then serially diluted to the kinase assay buffer. In a final reaction volume of 25 μL, Aurora-A(h) (5-10 mU) is incubated with 8 mM MOPS pH 7.0, 0.2 mM EDTA, 200 μM LRRASLG (Kemptide), 10 mM MgAcetate and [γ^33P-ATP]. The reaction was initiated by the addition of the MgATP mix. After incubation for 40 minute at room temperature, the reaction was stopped by addition of 5 μL of a 3% phosphoric acid solution. 10 μL of the reaction was then spotted onto a P30 filtermat and washed three times for 5 minutes in 50 mM phosphoric acid and once in methanol prior to drying and scintillation counting. Wells containing substrate but no kinase and wells containing a phosphopeptide control were used to set 0% and 100% phosphorylation value, respectively.
(§2) The Kinase Hotspot℠ kinase assay was also used to test the compounds for IC50 or % inhibitions (Reaction Biology Corp.). Inhibitory IC50 values were determined by titration of compound at the optimal kinase concentration (Kinase EC50).

Ret(h) = Ret(h) (Homo sapiens, UniProt P07949)
Chain of Ret(h) (P07949 29-1114): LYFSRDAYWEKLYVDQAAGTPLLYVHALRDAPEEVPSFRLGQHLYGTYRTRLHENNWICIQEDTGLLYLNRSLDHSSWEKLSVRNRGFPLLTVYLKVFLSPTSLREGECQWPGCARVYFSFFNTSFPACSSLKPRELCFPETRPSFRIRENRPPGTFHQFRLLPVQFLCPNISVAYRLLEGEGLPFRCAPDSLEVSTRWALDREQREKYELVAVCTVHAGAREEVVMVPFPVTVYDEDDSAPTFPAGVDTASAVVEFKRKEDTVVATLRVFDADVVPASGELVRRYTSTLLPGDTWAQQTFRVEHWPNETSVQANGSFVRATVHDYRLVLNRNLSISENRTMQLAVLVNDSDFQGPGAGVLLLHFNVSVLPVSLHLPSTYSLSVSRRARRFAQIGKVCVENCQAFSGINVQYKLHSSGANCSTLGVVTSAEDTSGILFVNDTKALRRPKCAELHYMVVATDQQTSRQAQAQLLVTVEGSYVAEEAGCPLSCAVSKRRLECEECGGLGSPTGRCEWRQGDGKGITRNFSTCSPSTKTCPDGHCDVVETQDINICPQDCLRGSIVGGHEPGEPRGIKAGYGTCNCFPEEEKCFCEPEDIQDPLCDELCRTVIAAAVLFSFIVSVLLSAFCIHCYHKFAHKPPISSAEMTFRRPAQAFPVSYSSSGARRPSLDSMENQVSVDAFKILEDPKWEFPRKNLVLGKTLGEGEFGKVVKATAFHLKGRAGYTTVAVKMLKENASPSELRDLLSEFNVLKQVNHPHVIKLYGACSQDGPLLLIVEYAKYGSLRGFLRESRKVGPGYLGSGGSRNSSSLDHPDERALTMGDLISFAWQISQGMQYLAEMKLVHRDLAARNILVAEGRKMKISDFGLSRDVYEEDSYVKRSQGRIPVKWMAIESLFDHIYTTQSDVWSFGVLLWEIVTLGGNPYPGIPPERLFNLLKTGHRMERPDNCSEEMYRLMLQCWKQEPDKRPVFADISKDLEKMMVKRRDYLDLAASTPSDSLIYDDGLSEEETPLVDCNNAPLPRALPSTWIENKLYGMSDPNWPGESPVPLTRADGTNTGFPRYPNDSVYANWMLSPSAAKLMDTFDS
Experimental: as §1, §2

Flt3(h) = biological target: T1, Flt3(h) (Homo sapiens, UniProt P36888)
T1 sequence (P36888 27-993): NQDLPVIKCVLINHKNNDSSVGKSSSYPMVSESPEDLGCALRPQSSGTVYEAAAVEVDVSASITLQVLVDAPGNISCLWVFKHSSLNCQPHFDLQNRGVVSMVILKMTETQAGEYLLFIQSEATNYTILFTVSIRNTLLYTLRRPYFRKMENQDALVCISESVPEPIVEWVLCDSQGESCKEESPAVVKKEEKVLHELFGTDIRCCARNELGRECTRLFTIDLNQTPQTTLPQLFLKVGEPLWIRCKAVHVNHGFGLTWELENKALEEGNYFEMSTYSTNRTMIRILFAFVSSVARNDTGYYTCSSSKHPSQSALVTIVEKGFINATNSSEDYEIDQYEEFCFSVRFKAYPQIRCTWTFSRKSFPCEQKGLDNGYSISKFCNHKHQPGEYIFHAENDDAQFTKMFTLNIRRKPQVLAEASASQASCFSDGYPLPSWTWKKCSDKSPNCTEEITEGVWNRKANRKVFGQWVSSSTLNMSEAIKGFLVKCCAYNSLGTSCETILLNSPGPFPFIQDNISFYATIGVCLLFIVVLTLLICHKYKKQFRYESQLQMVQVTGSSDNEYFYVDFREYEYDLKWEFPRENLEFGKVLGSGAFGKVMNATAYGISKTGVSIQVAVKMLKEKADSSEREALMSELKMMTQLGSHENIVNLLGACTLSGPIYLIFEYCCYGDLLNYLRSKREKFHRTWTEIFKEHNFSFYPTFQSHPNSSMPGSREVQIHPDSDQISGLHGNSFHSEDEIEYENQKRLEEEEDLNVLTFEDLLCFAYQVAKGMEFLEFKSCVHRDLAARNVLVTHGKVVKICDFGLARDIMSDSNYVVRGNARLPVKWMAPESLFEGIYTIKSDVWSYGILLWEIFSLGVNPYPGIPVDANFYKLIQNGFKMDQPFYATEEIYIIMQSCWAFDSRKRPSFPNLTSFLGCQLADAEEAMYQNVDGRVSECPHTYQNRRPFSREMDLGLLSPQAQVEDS
Experimental: as §1, §2

Aurora-A(h) = biological target: T2, Aurora-A(h) (Homo sapiens, UniProt O14965); conditions: read-out: % Inhibition @1 μM Auroro-A
T2 sequence (O14965 1-403): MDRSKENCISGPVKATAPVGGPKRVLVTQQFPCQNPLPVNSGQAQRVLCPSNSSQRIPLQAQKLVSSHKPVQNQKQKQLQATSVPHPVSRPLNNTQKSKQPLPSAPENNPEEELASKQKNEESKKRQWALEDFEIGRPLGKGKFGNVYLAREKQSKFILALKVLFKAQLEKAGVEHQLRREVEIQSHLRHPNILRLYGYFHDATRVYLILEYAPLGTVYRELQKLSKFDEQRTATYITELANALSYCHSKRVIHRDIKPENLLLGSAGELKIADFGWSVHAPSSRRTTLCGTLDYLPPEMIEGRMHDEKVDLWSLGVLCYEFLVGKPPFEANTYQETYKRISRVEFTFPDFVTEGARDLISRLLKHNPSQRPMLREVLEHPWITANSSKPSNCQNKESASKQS
Experimental: as §1, §2

Chain of cSRC(h) (P12931 whole entry): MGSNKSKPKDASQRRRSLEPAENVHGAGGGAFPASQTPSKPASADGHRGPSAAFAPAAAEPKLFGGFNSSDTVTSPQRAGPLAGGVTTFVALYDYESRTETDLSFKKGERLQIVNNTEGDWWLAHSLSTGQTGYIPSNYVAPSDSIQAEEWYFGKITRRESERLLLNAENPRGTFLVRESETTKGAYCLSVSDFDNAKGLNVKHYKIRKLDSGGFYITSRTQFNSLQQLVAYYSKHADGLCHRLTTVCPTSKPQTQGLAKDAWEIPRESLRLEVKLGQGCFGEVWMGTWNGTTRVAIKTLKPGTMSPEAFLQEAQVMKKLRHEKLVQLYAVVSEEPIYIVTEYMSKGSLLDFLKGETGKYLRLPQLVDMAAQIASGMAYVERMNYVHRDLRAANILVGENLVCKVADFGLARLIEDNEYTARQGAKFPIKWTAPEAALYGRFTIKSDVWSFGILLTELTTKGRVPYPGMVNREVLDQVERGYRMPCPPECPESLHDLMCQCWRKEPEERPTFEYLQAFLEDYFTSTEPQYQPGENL
Chain of Abl(h) (P00519 whole entry): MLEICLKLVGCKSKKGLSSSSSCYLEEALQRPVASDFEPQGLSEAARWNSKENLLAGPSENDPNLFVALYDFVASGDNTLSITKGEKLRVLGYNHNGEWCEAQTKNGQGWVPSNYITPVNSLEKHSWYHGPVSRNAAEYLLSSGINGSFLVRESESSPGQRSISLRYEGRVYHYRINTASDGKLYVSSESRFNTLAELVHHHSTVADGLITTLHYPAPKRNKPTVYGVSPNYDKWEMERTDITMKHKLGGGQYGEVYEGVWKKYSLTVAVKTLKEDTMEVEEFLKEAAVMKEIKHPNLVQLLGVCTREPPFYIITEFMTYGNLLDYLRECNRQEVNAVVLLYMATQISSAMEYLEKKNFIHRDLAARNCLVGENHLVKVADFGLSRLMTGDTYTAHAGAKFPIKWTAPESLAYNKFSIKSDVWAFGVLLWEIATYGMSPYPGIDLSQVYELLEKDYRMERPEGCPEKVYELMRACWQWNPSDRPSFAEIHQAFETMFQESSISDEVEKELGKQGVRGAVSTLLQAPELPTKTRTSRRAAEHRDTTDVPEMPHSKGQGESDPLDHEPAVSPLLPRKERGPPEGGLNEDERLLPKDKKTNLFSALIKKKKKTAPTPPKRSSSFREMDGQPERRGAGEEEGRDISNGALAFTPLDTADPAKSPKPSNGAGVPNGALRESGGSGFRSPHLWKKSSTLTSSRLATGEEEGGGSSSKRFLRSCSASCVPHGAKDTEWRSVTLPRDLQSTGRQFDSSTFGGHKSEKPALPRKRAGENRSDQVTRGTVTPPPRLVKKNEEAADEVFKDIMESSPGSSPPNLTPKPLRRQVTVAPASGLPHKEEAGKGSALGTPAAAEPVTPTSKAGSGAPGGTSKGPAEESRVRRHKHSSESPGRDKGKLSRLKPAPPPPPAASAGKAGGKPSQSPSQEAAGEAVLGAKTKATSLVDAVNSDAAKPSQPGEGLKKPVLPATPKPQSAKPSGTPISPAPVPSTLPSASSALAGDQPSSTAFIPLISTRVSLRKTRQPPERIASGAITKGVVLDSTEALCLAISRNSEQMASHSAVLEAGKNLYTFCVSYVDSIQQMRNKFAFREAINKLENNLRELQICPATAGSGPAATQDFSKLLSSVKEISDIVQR
Chain of KDR(h) (P35968 20-1356): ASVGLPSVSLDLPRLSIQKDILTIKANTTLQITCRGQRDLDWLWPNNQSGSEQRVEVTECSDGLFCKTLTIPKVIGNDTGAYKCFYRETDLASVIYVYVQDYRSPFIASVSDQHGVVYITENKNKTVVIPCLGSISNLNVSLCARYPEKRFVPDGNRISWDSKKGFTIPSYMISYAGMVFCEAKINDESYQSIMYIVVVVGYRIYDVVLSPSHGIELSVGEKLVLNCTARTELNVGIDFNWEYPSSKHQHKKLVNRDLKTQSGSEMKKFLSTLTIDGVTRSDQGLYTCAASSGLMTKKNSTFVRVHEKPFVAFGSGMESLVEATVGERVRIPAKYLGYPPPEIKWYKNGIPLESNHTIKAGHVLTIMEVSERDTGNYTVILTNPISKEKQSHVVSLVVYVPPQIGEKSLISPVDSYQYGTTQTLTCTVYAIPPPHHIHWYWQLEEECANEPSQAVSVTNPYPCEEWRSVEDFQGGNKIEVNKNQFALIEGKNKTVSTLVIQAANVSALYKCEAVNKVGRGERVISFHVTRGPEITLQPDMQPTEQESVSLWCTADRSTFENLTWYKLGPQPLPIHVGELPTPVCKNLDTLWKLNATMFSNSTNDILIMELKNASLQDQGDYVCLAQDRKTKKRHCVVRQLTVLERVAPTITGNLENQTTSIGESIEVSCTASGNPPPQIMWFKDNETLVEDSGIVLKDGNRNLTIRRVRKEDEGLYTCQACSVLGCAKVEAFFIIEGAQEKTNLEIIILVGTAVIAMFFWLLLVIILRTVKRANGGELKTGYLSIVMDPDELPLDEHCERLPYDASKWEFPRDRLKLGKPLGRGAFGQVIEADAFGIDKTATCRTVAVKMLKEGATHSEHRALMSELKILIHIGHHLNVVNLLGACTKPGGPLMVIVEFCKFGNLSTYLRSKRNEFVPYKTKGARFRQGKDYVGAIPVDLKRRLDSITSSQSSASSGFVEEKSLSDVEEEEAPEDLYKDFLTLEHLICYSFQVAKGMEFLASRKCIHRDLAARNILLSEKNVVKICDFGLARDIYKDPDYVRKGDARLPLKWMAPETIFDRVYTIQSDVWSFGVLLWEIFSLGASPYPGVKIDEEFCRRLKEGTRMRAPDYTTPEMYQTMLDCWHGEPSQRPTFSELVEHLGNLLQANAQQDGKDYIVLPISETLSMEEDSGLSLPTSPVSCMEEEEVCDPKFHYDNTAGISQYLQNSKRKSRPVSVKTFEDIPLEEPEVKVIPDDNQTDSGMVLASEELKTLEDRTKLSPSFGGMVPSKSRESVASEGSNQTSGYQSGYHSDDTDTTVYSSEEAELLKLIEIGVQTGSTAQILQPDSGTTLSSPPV

Row | Structure (SMILES) | inhibition at 1 µM (KDR(h)) [%] | inhibition at 1 µM (Abl(h)) [%] | inhibition at 1 µM (cSRC(h)) [%] | inhibition at 1 µM (Ret(h)) [%] | inhibition at 1 µM (Flt3(h)) [%] | inhibition at 1 µM (Aurora-A(h)) [%]
1 | COCC1CCN(c2cc(Nc3cc(C4CC4)[nH]n3)nc(Oc3ccc4[nH]c(C)cc4c3F)n2)C1 (stereo not drawn) [Compound 44] | 90 | 94 | 102 | 100 | 100 | 97
2 | Cc1cc2c(F)c(Oc3nc(Nc4cc(C5CC5)[nH]n4)cc(N4CCN(CCF)CC4)n3)ccc2[nH]1 [Compound 45] | 95 | 107 | 107 | 102 | 101 | 99
3 | C/C=C/c1cc(Nc2cc(N3CCN(CCOC)CC3)nc(Oc3ccc4[nH]c(C)cc4c3F)n2)n[nH]1 [Compound 54] | 96 | 108 | 99 | 100 | 99 | 85
4 | C/C=C/c1cc(Nc2cc(N3CCN(S(C)(=O)=O)CC3)nc(Oc3ccc4[nH]c(C)cc4c3F)n2)n[nH]1 [Compound 55] | 96 | 110 | 101 | 101 | 99 | 101
5 | Cc1cc2c(F)c(Oc3nc(Nc4cc(C5CC5)[nH]n4)cc(N4CCN(C)CC4)n3)cc(F)c2[nH]1 [Compound 81] | 96 | 110 | 99 | 99 | 101 | 99
6 | Cc1cc2c(F)c(Oc3nc(Nc4cc(C5CC5)[nH]n4)cc(N4CCOCC4)n3)cc(F)c2[nH]1 [Compound 84] | 93 | 103 | 100 | 100 | 100 | 98
7 | C/C=C/c1cc(Nc2cc(N3CCN(C)CC3)nc(Oc3cc(F)c4[nH]c(C)cc4c3F)n2)n[nH]1 [Compound 87] | 95 | 112 | 95 | 83 | 100 | 99
8 | C/C=C/c1cc(Nc2cc(N3CCOCC3)nc(Oc3cc(F)c4[nH]c(C)cc4c3F)n2)n[nH]1 [Compound 89] | 96 | 112 | 100 | 99 | 100 | 100
9 | C/C=C/c1cc(Nc2cc(N3CCC(OC)C3)nc(Oc3cc(F)c4[nH]c(C)cc4c3F)n2)n[nH]1 (stereo not drawn) [Compound 93] | 95 | 111 | 101 | 102 | 100 | 102
10 | C/C=C/c1cc(Nc2cc(N3CCC(N(CC)CC)C3)nc(Oc3cc(F)c4[nH]c(C)cc4c3F)n2)n[nH]1 (stereo not drawn) [Compound 94] | 96 | 111 | 100 | 102 | 99 | 100
11 | C/C=C/c1cc(Nc2cc(N3CCC(O)CC3)nc(Oc3cc(F)c4[nH]c(C)cc4c3F)n2)n[nH]1 [Compound 95] | 96 | 110 | 100 | 101 | 100 | 100

Other lines, results leading:

Row | inhibition at 1 µM (KDR(h)) [%] | inhibition at 1 µM (Abl(h)) [%] | inhibition at 1 µM (cSRC(h)) [%] | inhibition at 1 µM (Ret(h)) [%] | inhibition at 1 µM (Flt3(h)) [%] | inhibition at 1 µM (Aurora-A(h)) [%] | Structure (SMILES)
12 | 96 | 111 | 100 | 101 | 99 | 99 | C/C=C/c1cc(Nc2cc(N3CCN(C(C)=O)CC3)nc(Oc3ccc4[nH]c(C)cc4c3F)n2)n[nH]1 [Compound 56]
13 | 95 | 111 | 99 | 102 | 100 | 96 | C/C=C/c1cc(Nc2cc(N3CCS(=O)(=O)CC3)nc(Oc3ccc4[nH]c(C)cc4c3F)n2)n[nH]1 [Compound 57]
14 | 96 | 112 | 101 | 102 | 99 | 90 | C/C=C/c1cc(Nc2cc(N3CCC(OC)CC3)nc(Oc3ccc4[nH]c(C)cc4c3F)n2)n[nH]1 [Compound 58]
15 | 96 | 112 | 100 | 102 | 99 | 94 | C/C=C/c1cc(Nc2cc(N3CCC(O)CC3)nc(Oc3ccc4[nH]c(C)cc4c3F)n2)n[nH]1 [Compound 59]
16 | 95 | 111 | 101 | 102 | 99 | 97 | C/C=C/c1cc(Nc2cc(N3CCC(OC)C3)nc(Oc3ccc4[nH]c(C)cc4c3F)n2)n[nH]1 (stereo not drawn) [Compound 60]
17 | 97 | 112 | 100 | 102 | 100 | 95 | C/C=C/c1cc(Nc2cc(N3CCC(O)C3)nc(Oc3ccc4[nH]c(C)cc4c3F)n2)n[nH]1 (stereo not drawn) [Compound 61]
18 | 96 | 111 | 101 | 102 | 99 | 102 | C/C=C/c1cc(Nc2cc(N3CCC(N(CC)CC)C3)nc(Oc3ccc4[nH]c(C)cc4c3F)n2)n[nH]1 (stereo not drawn) [Compound 62]
19 | 91 | 112 | 99 | 100 | 100 | 99 | C/C=C/c1cc(Nc2cc(N3CCOCC3)nc(Oc3ccc4[nH]c(C)cc4c3F)n2)n[nH]1 [Compound 67]
20 | 96 | 111 | 100 | 102 | 100 | 99 | C/C=C/c1cc(Nc2cc(N3CCN(CCF)CC3)nc(Oc3ccc4[nH]c(C)cc4c3F)n2)n[nH]1 [Compound 74]
21 | 96 | 111 | 100 | 102 | 100 | 100 | C/C=C/c1cc(Nc2cc(N3CCC(O)C3)nc(Oc3cc(F)c4[nH]c(C)cc4c3F)n2)n[nH]1 (stereo not drawn) [Compound 92]
